The target in the assay is T1, Myriococcum thermophilum cellobiose dehydrogenase (CDH, SEQ ID NO: 1) variant N721D (Thermothelomyces myriococcoides, UniProt A9XK88, N721D).
T1 sequence (A9XK88 22-828 N721D): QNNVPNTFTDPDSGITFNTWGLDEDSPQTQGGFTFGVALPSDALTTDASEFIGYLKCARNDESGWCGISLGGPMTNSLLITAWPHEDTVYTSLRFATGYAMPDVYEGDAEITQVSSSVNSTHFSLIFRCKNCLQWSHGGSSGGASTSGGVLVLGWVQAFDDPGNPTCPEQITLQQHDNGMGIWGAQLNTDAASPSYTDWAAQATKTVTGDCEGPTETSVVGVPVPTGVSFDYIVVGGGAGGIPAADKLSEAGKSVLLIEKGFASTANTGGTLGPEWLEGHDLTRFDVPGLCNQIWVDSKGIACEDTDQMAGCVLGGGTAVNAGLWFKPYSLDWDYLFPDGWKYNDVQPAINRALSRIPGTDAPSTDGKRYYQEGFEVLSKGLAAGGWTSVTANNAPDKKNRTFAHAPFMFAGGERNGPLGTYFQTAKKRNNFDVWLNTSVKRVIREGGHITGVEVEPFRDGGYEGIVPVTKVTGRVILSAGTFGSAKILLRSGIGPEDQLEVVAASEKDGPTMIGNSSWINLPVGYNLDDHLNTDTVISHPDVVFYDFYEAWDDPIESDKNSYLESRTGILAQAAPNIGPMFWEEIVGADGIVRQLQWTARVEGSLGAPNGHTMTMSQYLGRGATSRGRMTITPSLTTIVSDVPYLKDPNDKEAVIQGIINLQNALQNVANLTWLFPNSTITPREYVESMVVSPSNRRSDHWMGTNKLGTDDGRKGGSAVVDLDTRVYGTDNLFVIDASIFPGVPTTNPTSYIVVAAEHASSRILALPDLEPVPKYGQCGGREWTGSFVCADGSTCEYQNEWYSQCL
As to the kind of experiment: Steady-state kinetics, DCIP assay: M. thermophilum CDH N721D. Format: biochemical. The note with it: apparent, pH 4.5, 30° C. As for the experimental part: Enzyme activity was assayed at 30° C. using either the DCIP (Karapetyan et al., 2005 Journal of Biotechnology 121: 34-48) or cytochrome c (Canevascini et al., 1991, European Journal of Biochemistry 198: 43-52) as electron acceptor. […] Stock solutions of carbohydrates used for kinetic measurements were prepared in the respective buffer and allowed to stand overnight for mutarotation, while stock solutions of electron acceptors were prepared in water and immediately used. The reaction stoichiometry is 1 for the two-electron acceptor DCIP (1 mole of DCIP reduced per mole of carbohydrate oxidized), but 2 for the one-electron acceptor cytochrome c. Kinetic constants were calculated by fitting the observed data to the Henri-Michaelis-Menten equation or to the adapted model for substrate inhibition using nonlinear least-squares regression and the program SigmaPlot (Systat Software, San Jose, Calif., USA). […]
Recombinant wild-type CDH as well as variants were produced in 1 L baffled flasks. […] Increase in activity was monitored using the DCIP and the cytochrome c enzyme assays. […]
The sample was loaded on a 20 mL PHE Sepharose FF column (HR26/20) equilibrated with 50 mM Na-acetate buffer pH 5.5 containing 20% ammonium sulfate. […] Fractions were tested for CDH activity and pooled according to the highest Reinheitszahl (RZ, calculated from the absorbance ratio 420 nm/280 nm). […]

Structures are written as SMILES.

Experimental findings from patent US10184115B2, “Mutated cellobiose dehydrogenase with increased substrate specificity” (DIRECTSENS GMBH, priority 2012, dated 2019) are described below.

A word on the kcat: it is the number of substrate molecules converted per active site and unit of time at saturation. Broadly, the kcat/KM is the turnover number divided by the Michaelis constant. With `OC[C@H]1OC(O)[C@H](O)[C@@H](O)[C@@H]1O` (some centres unmarked) [Glucose, glucose], the kcat stood at 1.9 s⁻¹ and the kcat/KM amounted to 5.9 M⁻¹ s⁻¹.
